Data as given in patent US20110092544A1, “FUNGICIDAL PYRIDINES” (E.I. DU PONT DE nemours and company, priority 2008, published 2011).

Columns and labels:
Type in all cases: in vivo
[1] = test system: Erysiphe graminis f. sp. tritici; assay: Test A: wheat powdery mildew, preventive spray on wheat seedlings, visual disease rating
Method in brief: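 Acetone/water (50/50) suspension with 250 ppm surfactant sprayed to run-off on wheat seedlings (200 ppm ≈ 500 g/ha); inoculated next day with E. graminis spore dust. Incubated 8 days at 20° C, then visually rated 0–100% disease control versus untreated controls; tests at 200 ppm or 40 ppm.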

[2] = test system: Plasmopara viticola; assay: Test H: grape downy mildew, spray after inoculation of grape seedlings, visual disease rating; conditions: 200 ppm, 100 = 100% disease control, 0 = no control
Excerpt: General protocol for preparing test suspensions for Tests A-H: The test compounds were first dissolved in acetone in an amount equal to 3% of the final volume and then suspended at the desired concentration (in ppm) in acetone and purified water (50/50 mix) containing 250 ppm of the surfactant Trem® 014 (polyhydric alcohol esters). The resulting test suspensions were then used in tests A-H. Spraying a 200 ppm test suspension to the point of run-off on the test plants was the equivalent of a rate of 500 g/ha.
Grape seedlings were inoculated with a spore suspension of Plasmopara viticola (the causal agent of grape downy mildew) and incubated in a saturated atmosphere at 20° C. for 24 h. After a short drying period, the test suspension was sprayed to the point of run-off on the grape seedlings, and then moved to a growth chamber at 20° C. for 6 days, after which time the test units were placed back into a saturated atmosphere at 20° C. for 24 h. Upon removal, disease ratings were visually made.
Results for Tests A-H are given in Table A. In the table, a rating of 100 indicates 100% disease control and a rating of 0 indicates no disease control (relative to the controls). A dash (-) indicates no test results. All results are for compounds tested at 200 ppm except where the compound number is followed by “*” which indicates the compound was tested at 40 ppm.

[3] = test system: Alternaria solani; assay: Test E: tomato early blight, preventive spray on tomato seedlings, visual disease rating
Method in brief: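 Seedlings sprayed to run-off with compound in acetone/water plus 250 ppm Trem 014 (200 ppm ≈ 500 g/ha), inoculated with spores next day. Held 48 h saturated at 27 °C, then 5 days at 20 °C; visual rating 0–100% disease control relative to controls.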

[4] = test system: Septoria nodorum; assay: Test D: wheat glume blotch, preventive spray on wheat seedlings, visual disease rating
Method in brief: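 Compounds in 3% acetone, then 50/50 acetone–water with 250 ppm Trem 014, sprayed to run-off at 200 ppm (500 g/ha; some at 40 ppm) one day before spore inoculation. Held 48 h saturated at 20 °C, then 7 days at 20 °C; visual rating as % disease control vs untreated (0–100).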

[5] = test system: Botrytis cinerea; assay: Test F: tomato botrytis, preventive spray on tomato seedlings, visual disease rating
Method in brief: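 Tomato seedlings sprayed to run-off with compound suspended in acetone/water (50/50) plus 250 ppm Trem 014, at 200 ppm (≈500 g/ha) or 40 ppm where marked. Inoculated next day with B. cinerea spores, 48 h saturated atmosphere at 20 °C, then 3 days at 24 °C. Visual rating, 0–100% disease control relative to controls.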

[6] = test system: Puccinia recondite f. sp. tritici; assay: Test B: wheat leaf rust, preventive spray on wheat seedlings, visual disease rating
Method in brief: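 Wheat seedlings were sprayed to run-off with compound suspension, 200 ppm (≈500 g/ha) or 40 ppm where marked, containing surfactant in acetone/water. Inoculation with Puccinia recondita spores followed one day later, then 24 h in saturated humidity at 20° C and 7 days at 20° C. Disease control was rated visually, 0–100% versus controls.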

[7] = test system: Septoria tritici; assay: Test C: wheat leaf blotch, preventive spray on wheat seedlings, visual disease rating
Method in brief: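 Wheat seedlings sprayed to run-off with compound in acetone/water plus 250 ppm surfactant at 200 ppm (≈500 g/ha), or 40 ppm where marked; inoculated with Septoria tritici next day. Held saturated at 20 °C for 48 h, then 19 days at 20 °C; disease control rated visually 0–100 versus controls.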

[8] = 200 ppm, 100 = 100% disease control, 0 = no control
[9] = 40 ppm (compound number followed by *)

`CCOC(=O)c1cnc(C)c(-c2ccccc2)c1-c1cc(OC)cc(OC)c1` [Compound 1] was tested, and the “Test A rating (% disease control)” value [1, 8] was 96%, the “Test H rating (% disease control)” value [2] was 0% and the “Test E rating (% disease control)” value [3, 8] was 0%. For the same molecule, the “Test D rating (% disease control)” value [4, 8] was 0%, the “Test F rating (% disease control)” value [5, 8] was 99% and the “Test B rating (% disease control)” value [6, 8] was 28%.

`COc1cc(OC)cc(-c2c(C(C)=O)cnc(C)c2-c2ccccc2)c1` [Compound 2] was tested, and the “Test A rating (% disease control)” value [1, 8] was 95%, the “Test H rating (% disease control)” value [2] was 0% and the “Test E rating (% disease control)” value [3, 8] was 0%. For the same molecule, the “Test D rating (% disease control)” value [4, 8] was 0%, the “Test F rating (% disease control)” value [5, 8] was 99% and the “Test B rating (% disease control)” value [6, 8] was 0%.

`CCOC(=O)c1cnc(C)c(-c2ccc(F)cc2)c1-c1cc(OC)cc(OC)c1` [Compound 11, ethyl 4-(3,5-dimethoxyphenyl)-5-(4-fluorophenyl)-6-methyl-3-pyridinecarboxylate] showed a pest or weed control at 200 ppm ([1]; Blumeria graminis, 192 h, 200 ppm, 100 = 100% disease control, 0 = no control) of 98%, a pest or weed control at 200 ppm ([2]; Plasmopara viticola, 192 h) of 0% and a pest or weed control at 200 ppm ([3]; Alternaria solani, 168 h, 200 ppm, 100 = 100% disease control, 0 = no control) of 0%. The pest or weed control at 200 ppm ([7]; Zymoseptoria tritici, 504 h, 200 ppm, 100 = 100% disease control, 0 = no control) was 30%, the pest or weed control at 200 ppm ([4]; Parastagonospora nodorum, 216 h, 200 ppm, 100 = 100% disease control, 0 = no control) was 0% and the pest or weed control at 200 ppm ([5]; Botrytis cinerea, 120 h, 200 ppm, 100 = 100% disease control, 0 = no control) was 0%. The pest or weed control at 200 ppm ([6]; 192 h, 200 ppm, 100 = 100% disease control, 0 = no control) was 0%.

`COc1cc(OC)cc(-c2c(-c3ccccc3F)c[n+]([O-])c(C)c2-c2ccccc2)c1` [Compound 33] was tested, and the “Test A rating (% disease control)” value [1, 8] was 79%, the “Test H rating (% disease control)” value [2] was 0% and the “Test E rating (% disease control)” value [3, 8] was 100%. The “Test F rating (% disease control)” value [5, 8] was 95%.

In the case of `CCOC(=O)c1c[n+]([O-])c(C)c(-c2ccccc2)c1-c1cc(OC)cc(OC)c1` [Compound 51], the “Test A rating (% disease control)” value [1, 8] is reported as 76%, the “Test H rating (% disease control)” value [2] is reported as 0% and the “Test E rating (% disease control)” value [3, 8] is reported as 0%. For the same molecule, the “Test D rating (% disease control)” value [4, 8] was 0%, the “Test F rating (% disease control)” value [5, 8] was 0% and the “Test B rating (% disease control)” value [6, 8] was 0%.

`COc1cc(OC)c(Cl)c(-c2c(-c3ccccc3F)cnc(C)c2-c2ccc(F)cc2)c1` [Compound 126] was tested, and the “Test A rating (% disease control)” value [1, 9] was 90%, the “Test E rating (% disease control)” value [3, 9] was 97% and the “Test C rating (% disease control)” value [7, 9] was 99%. For the same molecule, the “Test D rating (% disease control)” value [4, 9] was 100%, the “Test F rating (% disease control)” value [5, 9] was 100% and the “Test B rating (% disease control)” value [6, 9] was 100%.

In the case of `COc1cc(OC)cc(-c2c(-c3ccc(Cl)nc3)cnc(C)c2-c2c(F)cc(F)cc2F)c1` [Compound 127], the “Test A rating (% disease control)” value [1, 9] is reported as 90%, the “Test E rating (% disease control)” value [3, 9] is reported as 0% and the “Test C rating (% disease control)” value [7, 9] is reported as 99%. For the same molecule, the “Test D rating (% disease control)” value [4, 9] was 0%, the “Test F rating (% disease control)” value [5, 9] was 99% and the “Test B rating (% disease control)” value [6, 9] was 97%.

In the case of `COc1cc(OC)cc(-c2c(-c3cccnc3)cnc(C)c2-c2c(F)cc(F)cc2F)c1` [Compound 128], the “Test A rating (% disease control)” value [1, 9] is reported as 81%, the “Test E rating (% disease control)” value [3, 9] is reported as 94% and the “Test C rating (% disease control)” value [7, 9] is reported as 100%. For the same molecule, the “Test D rating (% disease control)” value [4, 9] was 90%, the “Test F rating (% disease control)” value [5, 9] was 99% and the “Test B rating (% disease control)” value [6, 9] was 99%.

In the case of `COc1cc(OC)cc(-c2c(C)cnc(C)c2-c2c(F)cc(F)cc2F)c1` [Compound 129], the “Test A rating (% disease control)” value [1, 9] is reported as 99%, the “Test E rating (% disease control)” value [3, 9] is reported as 66% and the “Test C rating (% disease control)” value [7, 9] is reported as 99%. For the same molecule, the “Test D rating (% disease control)” value [4, 9] was 60%, the “Test F rating (% disease control)” value [5, 9] was 99% and the “Test B rating (% disease control)” value [6, 9] was 100%.

With `COc1cc(OC)cc(-c2c(-c3cnc(OC)nc3OC)cnc(C)c2-c2c(F)cc(F)cc2F)c1` [Compound 131] the “Test A rating (% disease control)” value [1, 9] was 0%, the “Test E rating (% disease control)” value [3, 9] was 0% and the “Test C rating (% disease control)” value [7, 9] was 0%. For the same molecule, the “Test D rating (% disease control)” value [4, 9] was 0%, the “Test F rating (% disease control)” value [5, 9] was 80% and the “Test B rating (% disease control)” value [6, 9] was 9%.

`COc1cc(OC)cc(-c2c(-c3cccs3)cnc(C)c2-c2c(F)cc(F)cc2F)c1` [Compound 132] was tested, and the “Test A rating (% disease control)” value [1, 9] was 90%, the “Test E rating (% disease control)” value [3, 9] was 93% and the “Test C rating (% disease control)” value [7, 9] was 99%. The “Test D rating (% disease control)” value [4, 9] was 97%, the “Test F rating (% disease control)” value [5, 9] was 99% and the “Test B rating (% disease control)” value [6, 9] was 99%.

With `COc1cc(OC)c(Cl)c(-c2c(CCl)cnc(C)c2-c2c(F)cc(F)cc2F)c1` [Compound 134] the “Test A rating (% disease control)” value [1, 9] was 99%, the “Test E rating (% disease control)” value [3, 9] was 96% and the “Test C rating (% disease control)” value [7, 9] was 99%. For the same molecule, the “Test D rating (% disease control)” value [4, 9] was 92%, the “Test F rating (% disease control)” value [5, 9] was 100% and the “Test B rating (% disease control)” value [6, 9] was 100%.

`COc1cc(OC)c(Cl)c(-c2c(-c3ccccc3F)cnc(C)c2-c2c(F)cc(F)cc2F)c1` [Compound 135, 4-(2-chloro-3,5-dimethoxyphenyl)-5-(2-fluorophenyl)-2-methyl-3-(2,4,6-trifluorophenyl)pyridine] gave a pest or weed control at 40 ppm ([1]; Blumeria graminis, 192 h, 40 ppm (compound number followed by *)) of 98%, a pest or weed control at 40 ppm ([3]; Alternaria solani, 168 h, 40 ppm (compound number followed by *)) of 88% and a pest or weed control at 40 ppm ([7]; Zymoseptoria tritici, 504 h, 40 ppm (compound number followed by *)) of 99%. It also gave a pest or weed control at 40 ppm ([4]; Parastagonospora nodorum, 216 h, 40 ppm (compound number followed by *)) of 96%, a pest or weed control at 40 ppm ([5]; Botrytis cinerea, 120 h, 40 ppm (compound number followed by *)) of 100% and a pest or weed control at 40 ppm ([6]; 192 h, 40 ppm (compound number followed by *)) of 100%.

In the case of `COc1cc(OC)c(Cl)c(-c2c(-c3ccccc3F)cnc(C)c2-c2c(F)cc(F)cc2F)c1Cl` [Compound 136], the “Test A rating (% disease control)” value [1, 9] is reported as 0%, the “Test E rating (% disease control)” value [3, 9] is reported as 0% and the “Test C rating (% disease control)” value [7, 9] is reported as 40%. The “Test D rating (% disease control)” value [4, 9] was 0%, the “Test F rating (% disease control)” value [5, 9] was 48% and the “Test B rating (% disease control)” value [6, 9] was 74%.

With `Cc1nc(C#N)c(C)c(-c2ccc(Cl)cc2)c1-c1c(F)cccc1F` [Compound 143] the “Test A rating (% disease control)” value [1, 9] was 99%, the “Test E rating (% disease control)” value [3, 9] was 97% and the “Test C rating (% disease control)” value [7, 9] was 100%. The “Test D rating (% disease control)” value [4, 9] was 0%, the “Test F rating (% disease control)” value [5, 9] was 28% and the “Test B rating (% disease control)” value [6, 9] was 97%.

With `Cc1cnc(C)c(-c2c(F)cccc2F)c1-c1ccc(Cl)cc1` [Compound 144] the “Test A rating (% disease control)” value [1, 9] was 0%, the “Test E rating (% disease control)” value [3, 9] was 0% and the “Test C rating (% disease control)” value [7, 9] was 0%. For the same molecule, the “Test D rating (% disease control)” value [4, 9] was 0%, the “Test F rating (% disease control)” value [5, 9] was 45% and the “Test B rating (% disease control)” value [6, 9] was 0%.
